Measured values from patent publication US12171744B2, “Pharmaceutical combinations for the treatment of cancer” (Presage Biosciences, Inc., priority 2016, dated 2024).
Each block holds one compound with its values, some of them ahead of it.

Key:
[1] = test system: HCC1187 triple negative breast cancer (TNBC) xenograft model; test: CIVO microinjection, MCL-1 and CC3 staining; format: in vivo, mice; conditions: for CC3 expression: marker of apoptosis; for expression of MCL-1: drug screen
Procedure: (§1) Mice were enrolled into CIVO drug studies when the tumor volume reached approximately 1000 mm^3. Microinjection studies were performed using the CIVO device as previously described (Klinghoffer et al, Science Translational Medicine 2015) The device was configured with 6 injection needles set for a 6 mm injection length and a total volume delivery of 3 μl. A fluorescent tracking marker (FTM) was added to each drug reservoir in vehicle for delivery along with each drug or drug combination. All micro-doses were equivalent to or lower than what would be allowed under FDA guidelines for Exploratory IND (Investigational New Drug) studies and by solubility of drug into vehicle. Total amounts of agents injected are tabulated below in Table 4.
A drug screen was performed to test multiple drugs simultaneously.
FIG. 11 depicts a similar experiment performed on the HCC1187 triple negative breast cancer (TNBC) xenograft model. […] Cells were then stained for CC3 expression (shown in red) as a marker of apoptosis.
FIGS. 20A-20D depicts the HCC1187 triple negative breast cancer (TNBC) xenograft model. Briefly, cells were treated with vehicle, voruciclib alone, ixazomib alone, or voruciclib and ixazomib in combination. Cells were then stained for CC3 expression (shown in red) as a marker of apoptosis.

[2] = test system: tumor cells; test: Solid tumor section, CDK inhibitors in combination with ixazomib; design: species or system mice; conditions: mouse, in vivo
Procedure: as §1

[3] = test system: NudHL1 DLBCL xenografts; test: CIVO microinjection, CC3 staining after 6 hours; format: in vivo, mice; conditions: treated for 6 hours
Procedure: as §1, with “All micro-doses were equivalent to or lower than what would be allowed under FDA guidelines for Exploratory IND (Investigational New Drug) studies and by solubility of drug into vehicle.” left out
FIGS. 9A-9D depict cells that were treated as above and stained for cleaved caspase-3 (CC3) as a marker of apoptosis (shown in red).
FIGS. 10A-10D depict cells that were treated as above and stained for cleaved caspase-3 (CC3) as a marker of apoptosis (shown in red).

[4] = test system: tissue section; test: Tissue section treated with bortezomib; format: in vivo; conditions: some cells appear resistant
[5] = test system: HCC1187 triple negative breast cancer cells; test: Western blot of treated cells; format: cell-based; conditions: for XBP1 expression: at 24 hours
Procedure: Cell lines shown in Table 1, adherent or suspension, were treated in 6-well dishes or T10 flasks respectively, seeded at one million per ml density prior to treatment in total volumes of 3-10 ml. All agents used for in vitro cell treatments were formulated in water/DMSO to achieve required concentrations (as stated in respective figure labels/legends) with DMSO concentrations not exceeding 0.01%. Drug sources are indicated in table under ‘CIVO microinjection studies’. Cells were harvested at experimental time points: 2, 6, or 24 hours post treatment as indicated in respective figures, first by washing cells twice in ice-cold PBS in 15 ml falcon tubes, centrifugation at 1000 rpm for 5 mins followed by lysis of the respective cell pellets as described in section below. Note: Drug resistant NUDHL1 Dox 1000 nM and Toledo Dox 1000 nM cell lines were generated at Presage by culturing parental lines in media with stepwise increments in Doxorubicin concentration over several passages. These cells were used to generate xenografts when resistance to 1 uM Dox was achieved.
Protein lysates were prepared by adding ice-cold 1×RIPA Buffer (from 10×, Millipore) with 1×-3× Halt protease and phosphatase inhibitor cocktail (100×, Pierce) to cell pellets, followed by pulse sonication (˜3-5 secs) three times. Lysates were cleared by centrifugation at 14K rpm for 15-20 mins and the supernatant (lysate) was collected for further analysis. To prepare lysates from cryopreserved xenograft tumor tissue, tissue was first homogenized using a hand-held tissue homogenizer (Cole Palmer) in above lysis buffer followed by pulse sonication and centrifugation as described above. Above steps were carried out under ice cold conditions. […] 20-25 micrograms of protein from each sample were subject to SDS-PAGE using BOLT 4-12% Bis-Tris gels (Thermofisher) and transferred to either 0.45 or 0.2 micron pore size membranes (as applicable based on protein molecular size), and either nitrocellulose (NC) or pvdf (Thermofisher) using manufacturer's protocol, blocked for one hour in 5% milk at room temperature, probed with primary antibodies (Table 2) at 4 deg C. overnight and corresponding HRP-conjugated secondary antibodies (Jackson Immunoresearch, 1:10,000-1:20,000 dilutions) for 1 hour at room temperature. Three PBS/0.01% Tween-20 washes (5-10 mins each) were carried out after each antibody incubation. ECL chemiluminescent substrate (Pierce or GE) and autoradiographic film (Thermofisher) was used for detection of protein signals.
1 ug of mRNA from each condition was used to generate cDNA using the High Capacity cDNA Reverse Transcription Kit (Applied Biosystems) and manufacturer's protocol. 100 ng cDNA was used to conduct a PCR assay to amplify XBP1 u or splice forms (Thermofisher PCR Supermix)—94 deg C. for 2 mins, (94 deg C. for 15 secs, 55 deg C. for 30 secs, 72 deg C. for 1 min)×30 cycles, 72 deg C. for 7 mins, hold at 4 deg C.

[6] = Body weight in HCC1187 TNBC mouse model; conditions: in vivo
Procedure: Mice were enrolled for study when tumors reached an average volume of 150-200 mm^3. Tumor volume was calculated as V=length×width×height, all three dimensions measured using digital calipers along with body weight. Animals were removed from the study when—any one of the three measured dimensions of the tumor exceeding 2 cm, volume exceeding 2500 mm^3, ulceration or body weight loss greater than 20%.

[7] = target: MAK (Homo sapiens, UniProt P20794); test: Kinase inhibition profile
Sequence of MAK (P20794 whole entry): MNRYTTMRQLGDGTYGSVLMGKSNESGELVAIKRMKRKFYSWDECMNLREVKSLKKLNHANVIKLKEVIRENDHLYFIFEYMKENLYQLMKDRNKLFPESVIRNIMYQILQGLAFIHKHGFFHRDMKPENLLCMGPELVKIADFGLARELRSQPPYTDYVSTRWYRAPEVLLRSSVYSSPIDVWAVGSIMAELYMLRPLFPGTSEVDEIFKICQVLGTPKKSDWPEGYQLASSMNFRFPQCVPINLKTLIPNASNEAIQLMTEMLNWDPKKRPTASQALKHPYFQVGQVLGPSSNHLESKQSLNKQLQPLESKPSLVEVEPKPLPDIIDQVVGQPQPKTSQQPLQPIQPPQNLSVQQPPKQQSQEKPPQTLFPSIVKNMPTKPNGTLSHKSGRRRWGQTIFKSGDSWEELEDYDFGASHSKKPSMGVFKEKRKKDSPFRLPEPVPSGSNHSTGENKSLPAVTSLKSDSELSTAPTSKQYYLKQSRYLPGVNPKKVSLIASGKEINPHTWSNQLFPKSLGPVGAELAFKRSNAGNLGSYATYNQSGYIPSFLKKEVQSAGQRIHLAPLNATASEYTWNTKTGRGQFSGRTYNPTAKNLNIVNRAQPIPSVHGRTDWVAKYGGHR

[8] = target: ICK (Homo sapiens, UniProt Q9UPZ9); test: Kinase inhibition profile; format: biochemical
Sequence of ICK (Q9UPZ9 whole entry): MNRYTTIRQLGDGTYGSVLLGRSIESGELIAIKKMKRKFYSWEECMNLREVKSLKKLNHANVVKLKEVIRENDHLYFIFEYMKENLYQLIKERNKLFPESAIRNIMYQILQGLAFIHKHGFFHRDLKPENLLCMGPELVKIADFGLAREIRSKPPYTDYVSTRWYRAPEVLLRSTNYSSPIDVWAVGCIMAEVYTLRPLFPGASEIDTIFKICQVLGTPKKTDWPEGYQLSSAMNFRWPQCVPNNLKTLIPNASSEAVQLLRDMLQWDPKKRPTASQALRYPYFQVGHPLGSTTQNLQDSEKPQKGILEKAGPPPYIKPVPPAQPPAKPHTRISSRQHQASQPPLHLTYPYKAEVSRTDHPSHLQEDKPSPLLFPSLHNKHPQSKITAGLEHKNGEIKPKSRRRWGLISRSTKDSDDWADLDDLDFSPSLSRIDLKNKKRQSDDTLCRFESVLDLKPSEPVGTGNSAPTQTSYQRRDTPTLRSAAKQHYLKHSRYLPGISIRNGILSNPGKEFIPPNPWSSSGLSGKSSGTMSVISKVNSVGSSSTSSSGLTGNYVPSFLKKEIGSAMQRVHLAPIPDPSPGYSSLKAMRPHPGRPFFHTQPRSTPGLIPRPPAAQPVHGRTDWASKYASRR

Compound: CC(C)C[C@H](NC(=O)CNC(=O)c1cc(Cl)ccc1Cl)B(O)O [ixazomib]
CC3 expression [1]: little to no increase
synergistic effect on apoptosis of tumor cells [2]: did not exhibit the synergistic effect

Compound: CC(C)C[C@H](NC(=O)[C@H](Cc1ccccc1)NC(=O)c1cnccn1)B(O)O [bortezomib]
CC3 expression [3]: little to no increase
expression of MCL-1 [1]: increase
expression of MCL-1 ([1]; listed as Bortezomib): markedly increased
CC3 expression [1]: little to no increase
apoptosis [4]: induces apoptosis in some cells
MCL-1 protein expression ([5]; Western blot, compared to untreated sample): increased
XBP1 expression [5]: strongly induced
body weight of mice [6]: unaffected

Compound: C[C@@]12OC(=O)[C@]1([C@@H](O)[C@@H]1C=CCCC1)NC(=O)[C@@H]2CCCl [marizomib]
CC3 expression [3]: little to no increase

inhibition of MAK [7]: potent inhibitor
inhibition of ICK [8]: potent inhibitor
Compound: CN1CC[C@H](c2c(O)cc(O)c3c(=O)cc(-c4ccccc4Cl)oc23)[C@H](O)C1 [flavopiradol, reference compound]

Compound: tunicamycin [reference compound]
X-box binding protein 1 (XBP1) expression ([5]; at 6 hours): strongly induced
XBP1 expression [5]: strongly induced
